The source of these data is paper PMC10733197, “Utilization of Rosuvastatin and Endogenous Biomarkers in Evaluating the Impact of Ritlecitinib on BCRP, OATP1B1, and OAT3 Transporter Activity” (Pharmaceutical Research, 2023).

The target in data set [1] is T1, OAT1 (Homo sapiens, UniProt Q4U2R8).
T1 sequence (Q4U2R8 1-563): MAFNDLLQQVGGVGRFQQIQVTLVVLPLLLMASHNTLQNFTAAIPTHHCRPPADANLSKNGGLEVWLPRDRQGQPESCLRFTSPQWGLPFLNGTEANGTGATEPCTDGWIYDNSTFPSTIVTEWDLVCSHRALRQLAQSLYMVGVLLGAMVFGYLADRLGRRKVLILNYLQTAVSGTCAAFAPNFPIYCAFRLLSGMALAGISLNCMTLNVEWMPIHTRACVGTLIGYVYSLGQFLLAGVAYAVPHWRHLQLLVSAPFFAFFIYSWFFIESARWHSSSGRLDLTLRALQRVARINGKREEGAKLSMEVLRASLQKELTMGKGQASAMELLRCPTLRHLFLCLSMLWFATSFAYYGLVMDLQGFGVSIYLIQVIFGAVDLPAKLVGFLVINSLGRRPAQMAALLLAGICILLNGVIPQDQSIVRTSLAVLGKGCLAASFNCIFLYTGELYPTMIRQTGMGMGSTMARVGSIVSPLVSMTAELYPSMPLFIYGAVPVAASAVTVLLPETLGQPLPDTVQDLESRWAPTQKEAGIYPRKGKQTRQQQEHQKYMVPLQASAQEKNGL
The data set is described as follows: OAT1-mediated 3H-PAH uptake inhibition in transfected HEK293 cells. The following applies: for Fraction Inhibited / Triggers Drug Interaction Cutoff / Cmax,u/IC50 ratio: OAT1; for Fraction Inhibited: Cmax,u/(Cmax,u + IC50) (Eq. 2); for Triggers Drug Interaction Cutoff: Cmax,u/IC50 cutoff 0.1 (FDA); for Triggers Drug Interaction Cutoff / Cmax,u/IC50 ratio: 0.02 (EMA); for Cmax,u/IC50 ratio: cutoff 0.1 (FDA), ritlecitinib 200 mg; for IC50: renal OAT1, PAH 0.5 µM as substrate, 4 min, HEK293, mean ± SD, n = 3. The arrangement: expressed in transfected cells; host or cells: HEK293. The data set is classed as cell-based. As to the method:
Sources of human embryonic kidney (HEK) 293 cells expressing individual transfected human solute carriers (SLC), test substrates, and cell culture reagents, as well as detailed cell culture methods, incubations, and sample processing, have been described previously. SLC included hepatic OATP1B1, OATP1B3, and renal OAT1 and OAT3. […] Likewise, the uptake of non-labeled rosuvastatin (Biosynth, San Diego, CA) at 0.3—0.5 µM was determined for OATP1B1 and OATP1B3 at 1—3 min, and CP-I (Frontier Specialty Chemicals, Logan, UT) at 0.1 µM was determined for OATP1B1 and OATP1B3 at 10 min [14].
(§1) In all cases, ritlecitinib (0.018 to 1000 µM) and metabolite M2 (0.018 to 300 µM) was tested over a wide range of final concentrations dissolved in dimethyl sulfoxide (the final concentration of dimethyl sulfoxide in the assays was 1% v/v). For each transporter, the IC50 was estimated using a four-parameter logistic equation (Eq. 1) using GraphPad Prism software (GraphPad Software Inc, La Jolla, CA).1 %UptakeActivity=Bottom+(Top-Bottom)/1+10^(LogIC50-inhib*HillSlope)
At the end of the uptake and inhibition experiment, cellular accumulation of ^3H-PAH and ^3H-E3S was determined using liquid scintillation counting as previously described. Rosuvastatin uptake was determined using a tandem high performance liquid chromatography (LC)-mass spectrometry (MS) assay.
Assumes no substrate-dependent shift in IC50 versus PDA.^1 Each OAT form was singularly transfected in human embryonic kidney 293 cells.

The conditions of data set [2]: human, in vivo.
Method: This was a Phase 1, 2-period fixed-sequence, multiple-dose, open-label study of the effect of ritlecitinib on the pharmacokinetics and renal clearance of a single, oral dose of rosuvastatin in healthy participants (Fig. 1). The safety and tolerability of rosuvastatin when coadministered with ritlecitinib was also evaluated.
In Period 1 on Day 1, following an overnight fast of at least 10 h, participants received a single oral administration of rosuvastatin 10 mg tablet. Period 1 was immediately followed by Period 2 with no washout. In Period 2 (coadministration), participants received oral ritlecitinib 200 mg once daily (QD) under non-fasting conditions for 7 days. On the morning of Day 8, a single dose of rosuvastatin 10 mg tablet was administered orally within approximately 5 min after administration of a ritlecitinib 200 mg dose under fasting conditions. On Days 9 and 10, participants continued to receive oral ritlecitinib 200 mg QD under non-fasting conditions.
For data set [3], the target named is T2, BCRP (Homo sapiens, UniProt Q9UNQ0).
T2 sequence (Q9UNQ0 1-655): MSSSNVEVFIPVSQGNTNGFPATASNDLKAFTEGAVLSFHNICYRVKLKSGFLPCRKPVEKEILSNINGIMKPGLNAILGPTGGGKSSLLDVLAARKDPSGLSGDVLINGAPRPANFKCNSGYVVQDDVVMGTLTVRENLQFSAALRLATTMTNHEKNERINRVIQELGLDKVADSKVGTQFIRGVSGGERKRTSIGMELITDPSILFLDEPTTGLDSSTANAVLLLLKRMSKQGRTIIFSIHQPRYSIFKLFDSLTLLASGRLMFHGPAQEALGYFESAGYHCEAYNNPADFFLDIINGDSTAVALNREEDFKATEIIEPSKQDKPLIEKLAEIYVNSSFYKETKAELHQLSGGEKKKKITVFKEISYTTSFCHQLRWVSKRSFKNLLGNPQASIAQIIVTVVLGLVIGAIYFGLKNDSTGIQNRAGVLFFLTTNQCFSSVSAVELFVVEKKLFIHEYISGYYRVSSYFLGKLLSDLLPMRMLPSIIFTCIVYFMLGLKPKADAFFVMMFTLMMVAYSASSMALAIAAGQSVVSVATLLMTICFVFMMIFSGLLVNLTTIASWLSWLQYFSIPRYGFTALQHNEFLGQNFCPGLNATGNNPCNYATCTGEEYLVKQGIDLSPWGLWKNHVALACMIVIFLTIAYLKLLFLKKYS
The experiment in a line: BCRP inhibition in BCRP-expressing membrane vesicles with rosuvastatin as substrate. The data set is classed as biochemical. The note with it: for [I]2/IC50 ratio (G-value): ritlecitinib 200 mg, cutoff = 10. The method, then:
As described previously, BCRP inhibition by ritlecitinib was measured using BCRP-expressing membrane vesicles with non-labeled rosuvastatin as substrate.
as §1

Data set [4] deals with CYP1A2. The following applies: cited from earlier work.
The subject of data set [5] is CYP3A. The following applies: cited from earlier work.
Details of data set [6]: method as in data not published. The note with it: ref data not published, cited from earlier work.

A word on the % inhibition: it is the share of the control response that was lost under treatment. Low values mean a response near the control, high ones a response far below the control. As usually defined, the IC50 is the point on the concentration scale where inhibition reaches its midpoint. A lower IC50 goes with greater potency in that assay. On to `C[C@H]1CC[C@@H](Nc2ncnc3[nH]ccc23)CN1C(=O)CCSC[C@H](N)C(=O)O` [M2], for which the “% inhibition at the highest concentration tested” value in data set [1] (OAT1 (PAH), highest concentration 300 µM) was determined as 40%. In data set [1], the “Fraction Inhibited” value is recorded as less than 0.01, the “Triggers Drug Interaction Cutoff” value is recorded as “No”, the “Cmax,u/IC50 ratio” value is less than 0.01 and the IC50 is greater than 300 µM.

As to `C=CC(=O)N1C[C@H](Nc2ncnc3[nH]ccc23)CC[C@@H]1C` [Ritlecitinib, ritlecitinib], in data set [2], the “serious AEs, severe AEs, dose reductions or discontinuations due to AEs” value is given as “no serious adverse events”. For the same compound, the “Triggers Drug Interaction Cutoff” value in data set [3] ([I]2/IC50 cutoff = 10) and in data set [1] was “Yes” in each case. In addition, the IC50 was 27 ± 2 µM in data set [3] (intestinal BCRP, RSV 0.2 µM as substrate, membrane vesicles, mean ± SD, n = 3) and 156 ± 6 µM in data set [1]. Moreover, the “[I]2/IC50 ratio (G-value)” value in data set [3] was 104; in data set [3] (listed as ritlecitinib) it was ~ 100. In addition, in data set [4] (classification in words), the “inhibition of CYP1A2” value is “moderate inhibitor”. Further, the “contribution of CYP1A2 pathway to metabolism of ritlecitinib” value in data set [4] (ref data not published) is reported as less than 25%. For the same compound, in data set [5] (classification in words), the “inhibition of CYP3A” value is “moderate inhibitor”. For the same compound, in data set [5] (ref data not published), the “contribution of CYP3A pathway to metabolism of ritlecitinib” value was less than 25%. The “steady-state accumulation ratio of AUC” value in data set [6] (200 mg QD regimen, FIH study) is recorded as 1.8. In addition, the “half-life (arithmetic mean)” value in data set [6] (200 mg single dose, first-in-human study) was 1.75 h. The “steady-state of PK reached at” value in data set [6] (QD regimens, FIH study) was 4 days. The “Fraction Inhibited” value in data set [1] is recorded as 0.03; in data set [1] (listed as ritlecitinib), no more than 0.1. The “Cmax,u/IC50 ratio” value in data set [1] was 0.03.
